# Measurements published in the supplement of paper PMC10307832.
# How the values were obtained:
# Experiment in all cases: relative viability (nuclei count vs DMSO), 5 days (fraction); higher = more cells survive
# Carboplatin + Trametinib = compound: C1CC(C1)(C(=O)O)C(=O)O.[NH2-].[NH2-].[Pt+2] [Carboplatin] + CC(=O)Nc1cccc(-n2c(=O)n(C3CC3)c(=O)c3c(Nc4ccc(I)cc4F)n(C)c(=O)c(C)c32)c1 [Trametinib] (partner 0.02 µM)
# In short: (§1)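 Lung cancer cell lines were pin-tool dosed in 1536-well plates on the day after seeding, with either a lone drug or a fixed anchor-drug dose plus five library-drug doses (not always all listed) in √10 steps. Nuclei were counted on 4× images after 5 days. Relative viability is the ratio of treated-well to vehicle-well nuclei counts, with each value a median of duplicate plates.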
# Carboplatin + Pictilisib = compound: C1CC(C1)(C(=O)O)C(=O)O.[NH2-].[NH2-].[Pt+2] [Carboplatin] + CS(=O)(=O)N1CCN(Cc2cc3nc(-c4cccc5[nH]ncc45)nc(N4CCOCC4)c3s2)CC1 [Pictilisib] (partner 1 µM)
# In short: as §1
# GSK126 + Alpelisib = compound: CC[C@H](C)N1C=C(C2=C(C=C(C=C21)C3=CN=C(C=C3)N4CCNCC4)C(=O)NCC5=C(C=C(NC5=O)C)C)C [GSK126] + Cc1nc(NC(=O)N2CCC[C@H]2C(N)=O)sc1-c1ccnc(C(C)(C)C(F)(F)F)c1 [Alpelisib] (partner 2 µM)
# In short: as §1
# MLN4924 + Phenformin = compound: NS(=O)(=O)OC[C@@H]1C[C@@H](n2ccc3c(N[C@H]4CCc5ccccc54)ncnc32)C[C@@H]1O [MLN4924] + N=C(N)NC(=N)NCCc1ccccc1 [Phenformin] (partner 250 µM)
# In short: as §1
Cell Line,relative viability (Carboplatin + Trametinib; first compound 0.08 µM),relative viability (Carboplatin + Trametinib; first compound 0.253 µM),relative viability (Carboplatin + Trametinib; first compound 0.8 µM),relative viability (Carboplatin + Trametinib; first compound 2.53 µM),relative viability (Carboplatin + Trametinib; first compound 8 µM),relative viability (Carboplatin + Pictilisib; first compound 0.08 µM),relative viability (Carboplatin + Pictilisib; first compound 0.253 µM),relative viability (Carboplatin + Pictilisib; first compound 0.8 µM),relative viability (Carboplatin + Pictilisib; first compound 2.53 µM),relative viability (Carboplatin + Pictilisib; first compound 8 µM),relative viability (GSK126 + Alpelisib; first compound 0.08 µM),relative viability (GSK126 + Alpelisib; first compound 0.253 µM),relative viability (GSK126 + Alpelisib; first compound 0.8 µM),relative viability (GSK126 + Alpelisib; first compound 2.53 µM),relative viability (GSK126 + Alpelisib; first compound 8 µM),relative viability (MLN4924 + Phenformin; first compound 0.04 µM),relative viability (MLN4924 + Phenformin; first compound 0.1265 µM),relative viability (MLN4924 + Phenformin; first compound 0.4 µM),relative viability (MLN4924 + Phenformin; first compound 1.265 µM),relative viability (MLN4924 + Phenformin; first compound 4 µM)
HCC-44,1.14,1.08,1.02,1.1,0.903,0.577,0.552,0.666,0.554,0.592,0.884,0.841,0.813,0.81,0.859,0.144,0.172,0.0837,0.0692,0.102
HCC-78,0.828,0.587,0.653,0.674,0.73,0.213,0.228,0.194,0.217,0.21,0.413,0.304,0.287,0.301,0.372,0.694,0.634,0.888,0.219,0.203
HCC-366,0.406,0.43,0.372,0.269,0.179,0.138,0.128,0.0961,0.158,0.106,0.452,0.342,0.381,0.546,0.409,0.612,0.634,0.454,0.11,0.0866
HCC-827,0.579,0.517,0.557,0.497,0.57,0.886,0.923,0.79,0.846,0.897,1.06,1,1.03,0.997,0.982,0.453,0.462,0.316,0.144,0.136
HOP-62,0.393,0.359,0.385,0.393,0.363,0.527,0.747,0.663,0.64,0.65,0.998,1.14,0.974,0.727,0.917,0.393,0.335,0.134,0.0578,0.0991
IA-LM,–,–,–,–,–,0.404,0.373,0.353,0.261,0.242,0.893,0.927,0.784,0.724,0.664,–,–,–,–,–
LC-2-ad,0.91,0.934,0.923,0.882,0.8,0.669,0.477,0.436,0.447,0.399,0.927,0.967,0.773,0.793,0.9,0.506,0.491,0.372,0.223,0.203
LCLC-97TM1,0.236,0.216,0.212,0.228,0.26,0.209,–,0.233,0.194,0.18,0.254,–,0.22,0.374,0.217,0.417,0.314,0.288,0.108,0.137
LCLC-103H,0.703,0.703,0.68,0.689,0.654,0.65,0.597,0.613,0.646,0.611,0.953,1.02,0.927,0.992,1.03,0.358,0.368,0.347,0.157,0.143
LK-2,0.772,0.973,0.624,0.58,0.846,0.707,0.643,0.462,0.401,0.613,1.09,0.993,0.734,1.13,0.876,0.312,0.31,0.262,0.167,0.173
LOU-NH91,0.786,0.792,0.763,0.803,0.775,0.551,0.57,0.5,0.525,0.576,0.778,0.694,0.696,0.721,0.722,0.6,0.853,0.763,0.467,0.425
LU99A,0.602,0.634,0.537,0.55,0.418,0.3,0.379,0.323,0.328,0.307,0.554,0.512,0.52,0.572,0.594,0.477,0.622,0.437,0.196,0.213
NCI-H522,0.724,0.876,0.632,0.781,0.762,–,–,–,–,–,–,–,–,–,–,0.642,0.676,0.454,0.424,0.293
NCI-H1299,–,–,–,–,–,0.785,0.663,0.62,0.739,0.617,1.12,1,1.01,0.994,1.18,–,–,–,–,–
NCI-H1563,–,–,–,–,–,0.733,0.664,0.639,0.629,0.657,1.02,0.988,1.02,0.807,0.828,0.832,0.87,0.666,0.498,0.57
NCI-H1623,–,–,–,–,–,–,–,–,–,–,–,–,–,–,–,0.503,0.479,0.39,0.274,0.248
NCI-H1648,0.527,0.567,0.45,0.382,0.473,–,–,–,–,–,–,–,–,–,–,–,–,–,–,–
NCI-H1650,0.623,0.585,0.573,0.522,0.389,0.741,0.651,0.563,0.519,0.416,–,–,–,–,–,0.398,0.339,0.231,0.146,0.198
NCI-H1703,–,–,–,–,–,0.261,0.229,0.231,0.251,0.245,0.364,0.343,0.36,0.417,0.482,–,–,–,–,–
NCI-H2342,0.825,0.891,0.903,0.924,0.81,–,–,–,–,–,–,–,–,–,–,0.705,0.661,0.613,0.551,0.501
SW 900,0.794,0.904,1.07,0.7,0.759,–,–,–,–,–,–,–,–,–,–,0.205,0.483,0.258,0.15,0.128
